Laboratory results taken from ChEMBL document CHEMBL1201862, “PubChem BioAssay data set” (2004).
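Cells were grown in 96-well plates and exposed to each compound for 48 hours at five concentrations; endpoints were interpolated linearly between bracketing concentrations, or set to the highest concentration if not reached. At the GI50, growth is halved.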 The source made the active and inactive calls. No stated cut-off is given here; in the data, active = GI50 up to about 1.1 µM and inactive = higher.

How the values were obtained:
Assay in all cases: NCI tumour cell line growth inhibition, 48 h
EKVX = test system: EKVX
SR = test system: SR
SF-539 = test system: SF-539
NCI-H522 = test system: NCI-H522
HL-60 = test system: HL-60
DLD-1 = test system: DLD-1
CAKI-1 = test system: CAKI-1
Malme-3M = test system: Malme-3M
RPMI-8226 = test system: RPMI-8226
M14 = test system: M14
M19-MEL = test system: M19-MEL
BT-549 = test system: BT-549
MCF7 = test system: MCF7
PC-3 = test system: PC-3
A498 = test system: A498
NCI/ADR-RES = test system: NCI/ADR-RES
TK-10 = test system: TK-10
DU-145 = test system: DU-145
MDA-MB-435 = test system: MDA-MB-435
HOP-18 = test system: HOP-18

Row | SMILES | GI50 (EKVX) | GI50 (SR) | GI50 (SF-539) | GI50 (NCI-H522) | GI50 (HL-60) | GI50 (DLD-1) | GI50 (CAKI-1) | GI50 (Malme-3M) | GI50 (RPMI-8226) | GI50 (M14) | GI50 (M19-MEL) | GI50 (BT-549) | GI50 (MCF7) | GI50 (PC-3) | GI50 (A498) | GI50 (NCI/ADR-RES) | GI50 (TK-10) | GI50 (DU-145) | GI50 (MDA-MB-435) | GI50 (HOP-18)
1 | CCOC(=O)NC(=O)c1cn(CCNCCO)c(=O)[nH]c1=O | > 100 µM (inactive) | > 100 µM (inactive) | > 100 µM (inactive) | > 100 µM (inactive) | > 100 µM (inactive) | > 100 µM (inactive) | > 100 µM (inactive) | > 100 µM (inactive) | > 100 µM (inactive) | > 100 µM (inactive) | > 100 µM (inactive) | – | – | – | – | – | – | – | – | –
2 | c1nc2nc[nH]c(SSc3[nH]cnc4ncnc3-4)c-2n1 | 88.3 µM (inactive) | – | – | – | 2.14 µM (inactive) | – | – | 0.376 µM (active) | – | 1.21 µM (inactive) | – | 14.1 µM (inactive) | 0.136 µM (active) | 1.23 µM (inactive) | 14.4 µM (inactive) | 0.217 µM (active) | < 0.0343 µM (active) | – | – | –
3 | Cc1ccc(C(=O)C2CC3(CCC2(O)c2ccc(C)cc2)CC(=O)Nc2ccccc2C3=O)cc1 (configuration not stated) | > 100 µM (inactive) | > 100 µM (inactive) | > 100 µM (inactive) | – | 10.5 µM (inactive) | – | > 100 µM (inactive) | > 100 µM (inactive) | – | 46.5 µM (inactive) | – | > 100 µM (inactive) | 7.6 µM (inactive) | 7.05 µM (inactive) | > 100 µM (inactive) | > 100 µM (inactive) | > 100 µM (inactive) | > 100 µM (inactive) | > 100 µM (inactive) | –
4 | COc1nc(-c2cn(S(=O)(=O)c3ccc(C)cc3)c3ccc(Br)cc23)cc(C(F)(F)F)c1C#N | 40 µM (inactive) | – | 34.9 µM (inactive) | 47.9 µM (inactive) | 86.7 µM (inactive) | – | 45.2 µM (inactive) | > 100 µM (inactive) | 14.9 µM (inactive) | – | – | 24.5 µM (inactive) | 50.4 µM (inactive) | 47.4 µM (inactive) | 52.5 µM (inactive) | 71.8 µM (inactive) | – | 16.5 µM (inactive) | 81.1 µM (inactive) | –
5 | CC(=O)Nc1ccc(C(=O)NN2C(=O)C(Cl)C2/C=C/c2ccccc2)cc1 (configuration not stated) | – | > 100 µM (inactive) | > 100 µM (inactive) | > 100 µM (inactive) | > 100 µM (inactive) | > 100 µM (inactive) | – | > 100 µM (inactive) | > 100 µM (inactive) | – | > 100 µM (inactive) | – | – | – | – | – | > 100 µM (inactive) | – | – | > 100 µM (inactive)
6 | CC(C)(C)[Si](C)(C)OCCOCn1cc(F)c(=O)[nH]c1=O | > 100 µM (inactive) | > 100 µM (inactive) | > 100 µM (inactive) | > 100 µM (inactive) | > 100 µM (inactive) | – | > 100 µM (inactive) | > 100 µM (inactive) | > 100 µM (inactive) | > 100 µM (inactive) | – | > 100 µM (inactive) | > 100 µM (inactive) | > 100 µM (inactive) | > 100 µM (inactive) | > 100 µM (inactive) | > 100 µM (inactive) | 36.5 µM (inactive) | > 100 µM (inactive) | –
7 | COc1ccc(N2C(=O)CSC2c2c[nH]c3ccccc23)cc1 (configuration not stated) | > 100 µM (inactive) | 43 µM (inactive) | – | 24.5 µM (inactive) | 23.6 µM (inactive) | – | – | – | – | > 100 µM (inactive) | – | 85.1 µM (inactive) | 70.1 µM (inactive) | 24.7 µM (inactive) | – | – | 59.8 µM (inactive) | 51.8 µM (inactive) | 41.5 µM (inactive) | –
8 | S=C(N/N=C(/c1ccccc1)c1ccccn1)Nc1cccc(Cl)c1 | 0.0513 µM (active) | < 0.026 µM (active) | 1.48 µM (inactive) | – | < 0.0277 µM (active) | – | 0.701 µM (active) | 0.119 µM (active) | < 0.0385 µM (active) | 0.0596 µM (active) | – | 1.05 µM (active) | 0.091 µM (active) | – | 2.24 µM (inactive) | 0.0432 µM (active) | 0.714 µM (active) | 1.15 µM (inactive) | 0.802 µM (active) | –
9 | Nc1ncnc2c1sc1nc3ccccc3n12 | 35.1 µM (inactive) | – | 20.4 µM (inactive) | > 43.2 µM (inactive) | – | – | 33.7 µM (inactive) | > 71.3 µM (inactive) | > 91.4 µM (inactive) | > 84.1 µM (inactive) | – | 80 µM (inactive) | 23 µM (inactive) | > 100 µM (inactive) | > 61.7 µM (inactive) | > 83 µM (inactive) | > 100 µM (inactive) | > 100 µM (inactive) | > 100 µM (inactive) | –
10 | Cc1[nH]c(=O)nc(S)c1C(=O)NC1C2CCCCC2NC2CCCCC21 (configuration not stated) | – | 28.6 µM (inactive) | – | – | > 100 µM (inactive) | – | 17.2 µM (inactive) | 24.1 µM (inactive) | 26.4 µM (inactive) | 14.2 µM (inactive) | – | 16.4 µM (inactive) | 17 µM (inactive) | 13.2 µM (inactive) | 18.3 µM (inactive) | 17.7 µM (inactive) | 16.5 µM (inactive) | 11.8 µM (inactive) | 6.93 µM (inactive) | –
11 | O=C1CC(=O)N(c2ccccc2)N1/C(=C/c1ccccc1)c1ccccc1 | 37.6 µM (inactive) | 12.3 µM (inactive) | – | – | – | – | 17.3 µM (inactive) | – | 10.2 µM (inactive) | 19 µM (inactive) | – | 23.6 µM (inactive) | 21 µM (inactive) | 15.7 µM (inactive) | – | 25.5 µM (inactive) | 21.3 µM (inactive) | 24.4 µM (inactive) | 18.9 µM (inactive) | –
12 | CCOC(=O)[C@H]1Nc2c(cccc2[N+](=O)[O-])[C@H]2OCC[C@@H]12 | > 100 µM (inactive) | > 100 µM (inactive) | > 100 µM (inactive) | > 100 µM (inactive) | – | > 100 µM (inactive) | > 100 µM (inactive) | > 100 µM (inactive) | > 100 µM (inactive) | > 100 µM (inactive) | > 100 µM (inactive) | – | – | – | – | – | > 100 µM (inactive) | – | – | > 100 µM (inactive)
13 | CN1C(=O)[C@@H]2[C@@H]3c4ccccc4N[C@@H]3c3[nH]c4ccccc4c3[C@@H]2C1=O | 27.1 µM (inactive) | 15.8 µM (inactive) | 19 µM (inactive) | – | – | – | 33.2 µM (inactive) | – | 18.7 µM (inactive) | – | – | 18.7 µM (inactive) | 22.4 µM (inactive) | 17.4 µM (inactive) | 25.4 µM (inactive) | 22.8 µM (inactive) | 23.8 µM (inactive) | 41.7 µM (inactive) | 23.3 µM (inactive) | –
14 | Cn1c(=O)[nH]c2c(c1=O)C(=O)CN2 | > 100 µM (inactive) | > 100 µM (inactive) | > 100 µM (inactive) | – | > 100 µM (inactive) | > 100 µM (inactive) | > 100 µM (inactive) | > 100 µM (inactive) | > 100 µM (inactive) | > 100 µM (inactive) | > 100 µM (inactive) | – | – | – | – | – | > 100 µM (inactive) | – | – | > 100 µM (inactive)
15 | Nc1c(Br)cc2c(c1Br)Cc1cc(Br)ccc1-2 | – | > 100 µM (inactive) | – | > 100 µM (inactive) | – | – | – | – | – | > 100 µM (inactive) | – | – | > 100 µM (inactive) | > 100 µM (inactive) | 0.968 µM (active) | > 100 µM (inactive) | > 100 µM (inactive) | > 100 µM (inactive) | > 100 µM (inactive) | –
16 | CCSc1nc(N)c2c(-c3ccccc3)c3c(nc2n1)CCC3 | > 100 µM (inactive) | > 100 µM (inactive) | 6.53 µM (inactive) | – | > 100 µM (inactive) | – | > 100 µM (inactive) | > 100 µM (inactive) | > 100 µM (inactive) | > 100 µM (inactive) | – | > 100 µM (inactive) | > 100 µM (inactive) | > 100 µM (inactive) | – | > 100 µM (inactive) | > 100 µM (inactive) | > 100 µM (inactive) | > 100 µM (inactive) | –
17 | COc1ccc(-c2c(C#N)c(N)nc3c2CCS(=O)(=O)c2ccccc2-3)cc1 | – | > 100 µM (inactive) | – | > 100 µM (inactive) | > 100 µM (inactive) | – | > 100 µM (inactive) | 44.3 µM (inactive) | – | – | – | > 100 µM (inactive) | – | > 100 µM (inactive) | > 100 µM (inactive) | > 100 µM (inactive) | > 100 µM (inactive) | > 100 µM (inactive) | > 100 µM (inactive) | –
18 | Cc1cnc(SCCN2CCN(C)CC2)nc1-c1cc2ccccc2s1 | – | 2.48 µM (inactive) | 12.6 µM (inactive) | 14.7 µM (inactive) | – | 12.6 µM (inactive) | 1.51 µM (inactive) | 17 µM (inactive) | – | 13.2 µM (inactive) | – | – | – | – | 15.3 µM (inactive) | – | 17.4 µM (inactive) | – | – | < 0.01 µM (active)
19 | COc1ccccc1NC(=O)/C(Cc1nc2ccc([N+](=O)[O-])cc2nc1O)=N\NC(=O)C[N+](C)(C)C | 78 µM (inactive) | 1.44 µM (inactive) | 49.5 µM (inactive) | 28.3 µM (inactive) | 12.3 µM (inactive) | – | 70.3 µM (inactive) | – | – | 57.1 µM (inactive) | – | > 100 µM (inactive) | 72.8 µM (inactive) | > 100 µM (inactive) | – | 38.6 µM (inactive) | > 100 µM (inactive) | > 100 µM (inactive) | 20 µM (inactive) | –
20 | O=C(N/N=C\C(F)(F)F)c1ccncc1 | – | 35.2 µM (inactive) | – | – | > 100 µM (inactive) | – | 42.8 µM (inactive) | > 100 µM (inactive) | > 100 µM (inactive) | 26 µM (inactive) | – | > 100 µM (inactive) | 86.3 µM (inactive) | 26.9 µM (inactive) | 46.9 µM (inactive) | > 100 µM (inactive) | 22.8 µM (inactive) | 8.57 µM (inactive) | 9.59 µM (inactive) | –
21 | CCN(CC)c1ccc2cc(C(=O)Nc3ccc4[nH]c(C(=O)N5C[C@@H](CCl)c6c5cc(OC(=O)Nc5ccccc5)c5[nH]cc(C)c65)cc4c3)oc2c1 [CARZELESIN] | 0.000266 µM (active) | – | 318 µM (inactive) | 0.000708 µM (active) | 0.000282 µM (active) | – | 5.28e-05 µM (active) | 0.000256 µM (active) | 0.000308 µM (active) | – | 0.000316 µM (active) | – | 9.25e-05 µM (active) | – | 0.00024 µM (active) | – | – | – | – | < 0.1 µM (active)
